Measurements published in the NIST ThermoML archive (doi:10.1016/j.jct.2009.08.004).
Numbers after ± are expanded uncertainties.

Assay: mn = molality of the nth substance listed, in mol/kg
Conditions: 298.15 K, 101 kPa, Liquid, Pulse-echo method

A speed of sound (m1 = 0.02692) of 1499.5 ± 0.77 m/s, a speed of sound (m1 = 0.03696) of 1500.6 ± 0.77 m/s and a speed of sound (m1 = 0.04335) of 1501.3 ± 0.77 m/s were found for NCC(=O)N[C@@H](CO)C(=O)NCC(=O)O [glycyl-L-serylglycine] + O in this work. It also gave a speed of sound (m1 = 0.05037) of 1502 ± 0.77 m/s and a speed of sound (m1 = 0.06228) of 1503.2 ± 0.77 m/s.
